For one data set, the system named is HEK-293AI2 cells. The data set is classed as cell-based, human. Particulars: human, 5 µM. The method, then:
To monitor viable cells with active metabolism, we employed a fast resazurin assay. […] To calculate the relative cell viability, the fluorescence of DMSO-treated cells was set to 100%.
Figure 2. Cell-based primary screen for AI-2 biosynthesis inhibitors. (A) Detailed assay protocol of the primary screen using engineered mammalian cells to identify inhibitors of quorum sensing. […] Aliquots of 10 μl of culture supernatants were transferred to black-bottomed assay plates and mixed with 40 μl of V. harveyi MM32 (AI-2 biosensor). AI-2-induced bioluminescence was measured 4 h later and normalized against the controls. In a secondary screen, the dose-response relationships of hit compounds are analyzed. To simultaneously assess effects on cell viability, compound-treated cells were supplemented with PrestoBlue and incubated for 1 h prior to resorufin fluorescence quantification. (B) Z’-evaluation of the AI-2 inhibitor assay. […] Bioactivity and viability are calculated as percentages, based on the positive control value (taken as 100%) and negative control value (taken as 0%). […] Data points in (C) represent means of biological duplicates.

The test system of data set [1] is V. harveyi (BB170). Nature of the data set: V. harveyi BB170 bioluminescence (5 h). The data set is classed as cell-based, Vibrio harveyi. Particulars: V. harveyi BB170, 5 h. The method, then:
(§1) The test strain V. harveyi BB170 was grown overnight in Luria Marine (LM)-medium ([25]). The culture was 1:500 diluted in AB-medium (0.3 M NaCl, 10 mM potassium phosphate, 1 mM L-arginine, […], 1% glycerol) the next day, and then challenged with various chemical compounds. After 5 h of shaking at 200 rpm at 30°C, the bioluminescence of BB170 was quantified on a GENios Pro plate reader (Tecan, Männedorf, Switzerland).
(§2) Figure 3. Bioactivity of hit candidates against Vibrio harveyi. Effect on bacterial growth. V. harveyi (BB170) was grown in the presence of individual compounds (A–H) for 5 h and the bioluminescence (green circles) was quantified. After a total of 24 h, bacterial growth (+) was evaluated by measuring the optical density (OD600). The gray translucent background in (C) represents the narrow range within which the compound reduces bioluminescence without affecting growth.

In a further data set the test system is E. coli. The experiment in a line: E. coli quorum sensing / AI-2 activity in supernatant. The data set is classed as cell-based, Escherichia coli. Particulars: Supplementary Figure S3. The method, then:
The test strain E. coli RP437 was grown overnight in LB. Its optical density was measured on a Novaspec II photometer (Pharmacia, Freiburg, Germany) and the culture was diluted to a final OD600 of 0.1 the next morning. The bacteria were challenged with test compounds for 3 h, and then AI-2 activity in the culture supernatant was determined. Specifically, 90 μl of the AI-2 reporter strain V. harveyi (MM32), grown overnight in LM medium and then prediluted 1:500 in AB-medium containing 30 μg/ml kanamycin, was added to 10 μl of E. coli supernatant (10% v/v) in black-bottomed Fluotrac 200 96-well plates (Greiner Bio-One, Frickenhausen, Germany), which were shaken at 200 rpm, at 30°C. The AI-2 induced bioluminescence of MM32 was measured after 5 h. […]
Supplementary Figure 3 | Effect of hit candidates on Escherichia coli. […] AI-2-secreting E. coli (XL10-Gold) was grown for 3 h and AI-2 activity in the supernatant was quantified. […] Optical density (OD600) was measured after 24 h as a measure of cell growth. […] Then, planktonic cell growth (OD600) was measured and biofilm formation was quantified by means of crystal violet staining. (d) AI-2-secreting E. coli (RP437) was grown for 3 h in the presence of different compounds (10 µM), and then AI-2 activity in the supernatant was quantified. Optical density (OD600) was measured after 24 h.

Data set [2] has as its system V. harveyi (BB170). The experiment in a line: V. harveyi BB170 growth (OD600 after 24 h). The data set is classed as cell-based, Vibrio harveyi. Conditions: V. harveyi BB170, OD600 after 24 h. The method, then:
as §1, §2

The test system of data set [3] is MRSA ATCC 43300. The experiment in a line: Adherent MRSA quantification (CFU plating). The data set is classed as cell-based, Staphylococcus aureus. Conditions: 0.1 μM 5-FU, 24 h. The method, then:
To quantify the amount of adherent bacteria, 2 – 3 × 10^5 CFU/ml MRSA were grown for 24 h in the presence of different 5-FU concentrations. After incubation under static conditions at 37°C, the plate was washed twice with PBS. Adherent bacteria were removed with 100 μl PBS and appropriate dilutions were plated on Mueller-Hinton agar (Becton Dickinson AG, Allschwil, Switzerland) plates overnight at 37°C. Three independent experiments were performed, each performed in triplicate, and the mean values were calculated. Dimethyl sulfoxide (DMSO) was used as a control.
(§3) Figure 4. Bioactivity of 5-FU against MRSA ATCC 43300. (A) Quorum sensing-associated AI-2 activity of MRSA 43300 grown for 3 h with different 5-FU concentrations. (B) Effect of different 5-FU concentrations on MRSA 43300 growth. (C) Interference with biofilm formation. (D) Effect on adherent MRSA 43300. Data points represent three biological replicates expressed as mean ± SD (**P < 0.01; ***P < 0.001; ****P < 0.0001).

In data set [4] the test system is MRSA ATCC 43300. The experiment in a line: MRSA 43300 growth. The data set is classed as cell-based, Staphylococcus aureus. Conditions: 0.1 μM 5-FU. The method, then:
as §3

Data set [5] concerns MRSA ATCC 43300. Nature of the data set: Biofilm formation (Crystal Violet). The data set is classed as cell-based, Staphylococcus aureus. Conditions: 0.1 μM 5-FU, 24 h. The method, then:
To quantify the formation of bacterial biofilms, bacteria were grown for 24 h in the presence of potential inhibitors in 96-well polystyrene plates. The plates were then washed three times with distilled water. Remaining cells were stained with 0.1% Crystal Violet solution (5% methanol, 5% isopropanol) and further washed to remove excess dye. Crystal Violet was redissolved in 20% acetic acid solution and the absorbance of the solution was measured at 600 nm.
as §3

Take `O=c1[nH]cc(F)c(=O)[nH]1` [5-Fluorouracil]: the “Viability of Ctrl (%)” value in the data set on HEK-293AI2 cells amounted to 1.53%. The “Effect on V. harveyi bioluminescence” value in the data set on V. harveyi (BB170) [1] is given as “reduced the bioluminescence”. Also, the “Effect on E. coli quorum sensing” value in the data set with E. coli was “interfered with E. coli quorum sensing”. For the same compound, in the data set with V. harveyi (BB170) [2], the “Effect on V. harveyi growth” value was “without decreasing the growth”. For the same compound, in the data set with MRSA ATCC 43300 [3], the “Number of adherent MRSA” value was “reduced the number of adherent MRSA”. In addition, the “Bacterial growth of MRSA” value in the data set on MRSA ATCC 43300 [4] was “significantly decreased bacterial growth”. Besides, in the data set on MRSA ATCC 43300 [5], the “Biofilm formation of MRSA” value is “significantly decreased biofilm formation”.

The record behind these values is PMC8287944, “5-Fluorouracil blocks quorum-sensing of biofilm-embedded methicillin-resistant Staphylococcus aureus in mice” (Nucleic Acids Research, 2021).
